Results on 15 molecules are retold here after patent US8466162B2, “5-alkynyl-pyridines” (Boehringer Ingelheim International GmbH, priority 2011, dated 2013).

Broadly, the EC50 is the concentration needed to bring the measured effect to its halfway point. As a reminder, the IC50 is the concentration at which inhibition is half-maximal.

In one experiment the test system is MCF7 cells. Kind of experiment: alamarBlue MCF7 cell assay (antiproliferative/cytotoxicity). Particulars: MCF7 human breast cancer cell line. It counts as cell-based. The method, boiled down:
(§1)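 Read-out: alamarBlue reduction by metabolically active cells, fluorescence ex 530-560 nm/em 590 nm, measured 8 h after dye addition at 37° C. Cells had been exposed to compound for 5-6 days over a 10-point 1:3 series starting at 10 μM final. EC50 derived after medium-blank subtraction.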
(In general: Alamar Blue is a resazurin reagent that responds to reducing activity.)

Another experiment concerns H460 cells. Kind of experiment: alamarBlue H460 cell assay (antiproliferative/cytotoxicity). The experiment is classed as cell-based. As to conditions: NCI-H460; H460 human lung carcinoma cells. The method, boiled down: as §1
In another experiment the test system is U87 cells. Kind of experiment: alamarBlue U87 cell assay (antiproliferative/cytotoxicity). The experiment is classed as cell-based. Particulars: U-87MG human glioblastoma cells. The text has this:
(§2) The H460, MB453, U87, MCF7 and BT474 alamarBlue cell assays provide EC50 values indicative of the antiproliferative or cytotoxic effects of the compounds to respectively the H460 (human non small cell line cancer), MB-453 (breast cancer cell line), U87 (glioblastoma cell line), MCF7 (breast cancer cell line) and BT474 (breast cancer cell line). As known in the field, antiproliferative or cytotoxic effect against this cell lines would be expected to be indicative of activity in treating lung, breast and brain cancers. See R. Marone R et al. Biochim. Biophys. Acta. 2008 January; 1784(1):159-85. S. Yaguchi et al., J. Natl. Cancer Inst. 2006 Apr. 19; 98(8):545-56.
(§3) Method Type: Antiproliferative/Cytotoxicity
(§4) alamarBlue® is designed to provide a rapid and sensitive measure of cell proliferation and cytotoxicity in various human and animal cell lines. The assay is based on the reduction of alamarBlue in the reducing environment of living (metabolically active) cells. In the presence of added cytotoxic or antiproliferative compounds, the innate metabolic activity ceases.
(§5) AlamarBlue is soluble and stable in culture medium. Measurements are made fluorometrically by exciting at 530-560 nm and measuring emission at 590 nm. In reporting percent alamarBlue reduction by monitoring fluorescence, data are expressed as fluorescence emission intensity units as a function of time of incubation.
(§6) 3. Equipment • 96-well plates, flat bottom (Falcon, Cat. No.: 353072) • 96-well plates, U-shaped (Costar, Cat. No.: 3799) • CO2-Incubator • Microplate Reader, Spectramax Plus, Molecular Devices 4. Typical Procedure • Day 0: Seed 3000 BT-474 cells (IMDM/5% FCS, 1% NEAA, 1% Sodiumpyruvat) in 150 μl medium into a 96-well plate, flat bottom (include mediumblank). Incubate plates at 37° C. in a CO2 incubator overnight. • Day 1: Dilute compounds to a concentration 40 μM ->1:3 in medium, 10 dilution steps, in 96-well plates. • Add 50 μl per well of each dilution (total volume per well 200 μl; final conc. of cpds: 10 μM ->1:3). If required, test further dilutions. • All concentrations are tested in duplicates. • Controls: Cells w/o cpd. (+50 μl medium/DMSO). • Cells are incubated with compounds for 5-6 days. • Day 6 or 7: Add 25 μl of alamarBlue solution to each well and incubate for 8 hours at 37° C. Measure fluorescence by exciting at 530-560 nm and measuring emission at 590 nm 5. Evaluation • Subtract average value for medium blank from sample readings • Calculate EC50 using GraphPad Prism (Fifty)

The test system of the next experiment is BT474 cells. As to the kind of experiment: alamarBlue BT474 cell assay (antiproliferative/cytotoxicity). It counts as cell-based. As to conditions: BT-474 human breast cancer cell line, 5-6 days incubation. The method, boiled down:
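Following 5-6 days of treatment across a duplicate 1:3 series (10 μM final maximum), wells received alamarBlue for 8 hours at 37° C before fluorescence measurement; EC50 was fitted. For BT474, 3000 cells were plated in IMDM with 5% FCS.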

For the next experiment, the target named is T1, PI3Kalpha (Homo sapiens, UniProt P42336).
T1 construct: His (N); made in house; host or cells: SF9 insect cells (baculovirus co-infection)
As to the kind of experiment: Inhibition of PI3Kalpha-induced PIP-2 phosphorylation (filter-binding assay, 33P-ATP). The experiment is classed as biochemical. Particulars: PI3 Kinase alpha (p85alpha/His-p110alpha), 1 μM ATP; read-out: IC50 PI3Kα.

The next experiment relates to MB453 cells. Kind of experiment: alamarBlue MB453 cell assay (antiproliferative/cytotoxicity). It counts as cell-based. Particulars: Homo sapiens; MDA MB 453 breast cancer cell line.
Description: as §2, §3, §4, §5, §6

T1 sequence (P27986 whole entry): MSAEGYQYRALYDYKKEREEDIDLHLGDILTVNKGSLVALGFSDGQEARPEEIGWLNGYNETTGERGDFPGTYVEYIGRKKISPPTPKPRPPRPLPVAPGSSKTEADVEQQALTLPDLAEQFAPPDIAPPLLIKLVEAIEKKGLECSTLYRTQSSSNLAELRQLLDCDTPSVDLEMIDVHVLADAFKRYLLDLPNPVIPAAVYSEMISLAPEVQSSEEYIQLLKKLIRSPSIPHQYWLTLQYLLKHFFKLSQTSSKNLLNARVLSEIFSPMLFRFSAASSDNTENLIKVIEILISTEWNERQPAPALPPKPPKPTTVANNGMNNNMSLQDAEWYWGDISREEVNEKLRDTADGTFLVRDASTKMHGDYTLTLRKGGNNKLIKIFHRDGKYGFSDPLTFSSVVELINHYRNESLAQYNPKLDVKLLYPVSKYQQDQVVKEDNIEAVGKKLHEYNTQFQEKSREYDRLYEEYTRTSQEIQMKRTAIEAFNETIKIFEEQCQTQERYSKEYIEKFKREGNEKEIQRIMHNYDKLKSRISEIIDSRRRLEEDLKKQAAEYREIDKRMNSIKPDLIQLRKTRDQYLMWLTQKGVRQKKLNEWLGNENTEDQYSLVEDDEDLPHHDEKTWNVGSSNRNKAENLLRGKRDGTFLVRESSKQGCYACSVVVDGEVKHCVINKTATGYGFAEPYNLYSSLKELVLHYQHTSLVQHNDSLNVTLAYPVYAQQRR
T1 sequence (P42336 whole entry): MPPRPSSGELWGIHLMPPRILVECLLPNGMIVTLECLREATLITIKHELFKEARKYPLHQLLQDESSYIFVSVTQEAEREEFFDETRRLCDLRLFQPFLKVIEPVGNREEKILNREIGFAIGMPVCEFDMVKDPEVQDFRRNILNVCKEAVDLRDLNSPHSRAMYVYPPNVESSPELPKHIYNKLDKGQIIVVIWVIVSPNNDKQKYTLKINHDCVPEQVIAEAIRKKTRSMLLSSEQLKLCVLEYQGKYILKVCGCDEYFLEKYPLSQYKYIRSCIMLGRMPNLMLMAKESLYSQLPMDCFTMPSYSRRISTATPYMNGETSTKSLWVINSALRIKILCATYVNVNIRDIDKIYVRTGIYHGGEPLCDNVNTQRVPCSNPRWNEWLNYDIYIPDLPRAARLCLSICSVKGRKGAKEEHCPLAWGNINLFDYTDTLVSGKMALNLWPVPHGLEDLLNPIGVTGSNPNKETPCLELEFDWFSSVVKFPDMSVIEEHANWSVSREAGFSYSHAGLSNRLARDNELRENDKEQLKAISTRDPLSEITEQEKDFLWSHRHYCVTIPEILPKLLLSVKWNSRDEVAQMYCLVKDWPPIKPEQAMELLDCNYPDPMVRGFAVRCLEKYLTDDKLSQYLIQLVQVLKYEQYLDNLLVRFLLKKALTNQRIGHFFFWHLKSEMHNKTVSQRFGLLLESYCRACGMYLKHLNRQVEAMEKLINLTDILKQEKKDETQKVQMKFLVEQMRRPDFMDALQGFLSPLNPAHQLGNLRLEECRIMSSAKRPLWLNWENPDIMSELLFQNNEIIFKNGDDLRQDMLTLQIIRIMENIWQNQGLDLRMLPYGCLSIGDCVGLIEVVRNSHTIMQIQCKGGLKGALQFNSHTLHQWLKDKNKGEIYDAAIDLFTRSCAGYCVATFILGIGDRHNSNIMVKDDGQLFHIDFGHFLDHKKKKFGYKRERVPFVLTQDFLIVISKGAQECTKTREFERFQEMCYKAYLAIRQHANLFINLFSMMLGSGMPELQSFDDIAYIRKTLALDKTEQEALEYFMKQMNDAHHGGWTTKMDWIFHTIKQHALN

On to `CCc1cc(-c2ncnc(CC)c2C#Cc2cnc(C)c(NS(C)(=O)=O)c2)ccn1` [Example 5, N-{5-[4-Ethyl-6-(2-ethyl-pyridin-4-yl)-pyrimidin-5-ylethynyl]-2-methyl-pyridin-3-yl}-methanesulfonamide], for which the EC50 in the experiment on MCF7 cells is 34 nM; in the experiment on H460 cells, 159 nM; with U87 cells, 220 nM; with BT474 cells, 117 nM; in the experiment with MB453 cells it was 54 nM. At PI3Kalpha, the half-inhibitory concentration (IC50) worked out at 0.63 nM.

Regarding `CCc1ncnc(-c2cc(C)nc(C)c2)c1C#Cc1cnc(C)c(NS(C)(=O)=O)c1` [Example 6, N-{5-[4-(2,6-Dimethyl-pyridin-4-yl)-6-ethyl-pyrimidin-5-ylethynyl]-2-methyl-pyridin-3-yl}-methanesulfonamide], the EC50 with MCF7 cells stood at 28 nM; in the experiment with H460 cells, 169 nM; with U87 cells, 243 nM; in the experiment on BT474 cells, 104 nM; in the experiment with MB453 cells, 49 nM. In addition, the 50% inhibitory concentration (IC50) on PI3Kalpha came out at 1 nM.

As to `CCc1ncnc(-c2cccc(C(F)(F)F)c2OC)c1C#Cc1cnc(C)c(NS(C)(=O)=O)c1` [Example 7, N-{5-[4-Ethyl-6-(2-methoxy-3-trifluoromethyl-phenyl)-pyrimidin-5-ylethynyl]-2-methyl-pyridin-3-yl}-methanesulfonamide], the 50% effective concentration (EC50) in the experiment on MCF7 cells was determined as 223 nM; in the experiment on H460 cells, 358 nM; in the experiment on U87 cells it was 475 nM; in the experiment with BT474 cells, 543 nM; in the experiment with MB453 cells it was 381 nM. Moreover, the IC50 at PI3Kalpha is 2 nM.

Regarding `CCc1ncnc(-c2ccc(OC)c(F)c2)c1C#Cc1cnc(C)c(NS(C)(=O)=O)c1` [Example 8, N-{5-[4-Ethyl-6-(3-fluoro-4-methoxy-phenyl)-pyrimidin-5-ylethynyl]-2-methyl-pyridin-3-yl}-methanesulfonamide], the EC50 with MCF7 cells was determined as 99 nM; with H460 cells, 241 nM; in the experiment on U87 cells, 910 nM; in the experiment on BT474 cells it was 279 nM; in the experiment with MB453 cells, 184 nM. In addition, on PI3Kalpha, the concentration for half-maximal inhibition (IC50) amounted to 1 nM.

As for `CCc1ncnc(-c2ccc(C)nc2)c1C#Cc1cnc(C)c(NS(=O)(=O)c2ccc(F)cc2F)c1` [Example 9, N-{5-[4-Ethyl-6-(6-methyl-pyridin-3-yl)-pyrimidin-5-ylethynyl]-2-methyl-pyridin-3-yl}-2,4-difluoro-benzenesulfonamide], the 50% effective concentration (EC50) with MCF7 cells turned out to be 7 nM; in the experiment on H460 cells, 49 nM; in the experiment with U87 cells, 248 nM; in the experiment on BT474 cells, 24 nM; in the experiment on MB453 cells it was 36 nM. Besides, the IC50 at PI3Kalpha came to 0.54 nM.

`CCc1ncnc(-c2ccnc(C)c2)c1C#Cc1cnc(C)c(NS(=O)(=O)c2ccc(F)cc2F)c1` [Example 10, N-{5-[4-Ethyl-6-(2-methyl-pyridin-4-yl)-pyrimidin-5-ylethynyl]-2-methyl-pyridin-3-yl}-2,4-difluoro-benzenesulfonamide]: the half-maximal effective concentration (EC50) was 29 nM in the experiment with MCF7 cells; 92 nM with H460 cells; 326 nM in the experiment with U87 cells; 75 nM with BT474 cells; 69 nM in the experiment on MB453 cells. In addition, the IC50 at PI3Kalpha stood at 0.56 nM.

With `CCOc1ccc(-c2ncnc(CC)c2C#Cc2cnc(C)c(NS(C)(=O)=O)c2)cc1OCC` [Example 23, N-{5-[4-(3,4-Diethoxy-phenyl)-6-ethyl-pyrimidin-5-ylethynyl]-2-methyl-pyridin-3-yl}-methanesulfonamide], the concentration for a half-maximal effect (EC50) in the experiment with MCF7 cells was determined as 45 nM; in the experiment with H460 cells it was 109 nM; in the experiment on U87 cells, 470 nM; in the experiment on BT474 cells, 119 nM; in the experiment on MB453 cells, 123 nM. Besides, the IC50 at PI3Kalpha was 0.58 nM.

Consider `CCc1ncnc(-c2ccc(C(=O)N3CCN(C)CC3)c(F)c2)c1C#Cc1cnc(C)c(NS(=O)(=O)c2ccc(F)cc2F)c1` [Example 27, N-(5-{4-Ethyl-6-[3-fluoro-4-(4-methyl-piperazine-1-carbonyl)-phenyl]-pyrimidin-5-ylethynyl}-2-methyl-pyridin-3-yl)-2,4-difluoro-benzenesulfonamide], for which the concentration giving a half-maximal response (EC50) was 11 nM in the experiment with MCF7 cells; 192 nM in the experiment on H460 cells; 75 nM in the experiment with U87 cells; 51 nM in the experiment with BT474 cells; 33 nM in the experiment on MB453 cells. Moreover, the half-maximal inhibitory concentration (IC50) at PI3Kalpha was 0.5 nM.

With `CCc1nc(N)nc(-c2ccc(C(=O)N3CCN(C)CC3)c(F)c2)c1C#Cc1cnc(C)c(NS(=O)(=O)c2ccc(F)cc2F)c1` [Example 32, N-(5-{2-Amino-4-ethyl-6-[3-fluoro-4-(4-methyl-piperazine-1-carbonyl)-phenyl]-pyrimidin-5-ylethynyl}-2-methyl-pyridin-3-yl)-2,4-difluoro-benzenesulfonamide], the EC50 with MCF7 cells was 23 nM; with H460 cells, 500 nM; with U87 cells it was 259 nM; in the experiment on BT474 cells, 127 nM; in the experiment on MB453 cells, 49 nM. Besides, the IC50 at PI3Kalpha is 0.28 nM.

In the case of `CCc1nc(N)nc(-c2ccnc(C)c2)c1C#Cc1cnc(C)c(NS(=O)(=O)c2ccc(F)cc2F)c1` [Example 33, N-{5-[2-Amino-4-ethyl-6-(2-methyl-pyridin-4-yl)-pyrimidin-5-ylethynyl]-2-methyl-pyridin-3-yl}-2,4-difluoro-benzenesulfonamide], the 50% effective concentration (EC50) in the experiment on MCF7 cells was 9 nM; in the experiment with H460 cells, 70 nM; in the experiment on U87 cells, 224 nM; with BT474 cells, 33 nM; in the experiment on MB453 cells it was 45 nM. Also, the concentration for half-maximal inhibition (IC50) on PI3Kalpha amounted to 0.45 nM.

`CCc1nc(N)nc(-c2ccc(C)nc2)c1C#Cc1cnc(C)c(NS(=O)(=O)c2ccc(F)cc2F)c1` [Example 36, N-{5-[2-Amino-4-ethyl-6-(6-methyl-pyridin-3-yl)-pyrimidin-5-ylethynyl]-2-methyl-pyridin-3-yl}-2,4-difluoro-benzenesulfonamide]: the EC50 was determined as 10 nM in the experiment with MCF7 cells; 30 nM in the experiment on H460 cells; 127 nM with U87 cells; 41 nM with BT474 cells; 37 nM in the experiment with MB453 cells. Besides, at PI3Kalpha, the IC50 is 0.56 nM.

In the case of `Cc1ncc(C#Cc2c(C)ncnc2-c2ccc(C(=O)N3CCN(C)CC3)c(F)c2)cc1NS(C)(=O)=O` [Example 37, N-(5-{4-[3-Fluoro-4-(4-methyl-piperazine-1-carbonyl)-phenyl]-6-methyl-pyrimidin-5-ylethynyl}-2-methyl-pyridin-3-yl)-methanesulfonamide], the concentration giving a half-maximal response (EC50) was determined as 4000 nM in the experiment on MCF7 cells; 25000 nM in the experiment with H460 cells; 3040 nM in the experiment with U87 cells; 1020 nM in the experiment with BT474 cells; 685 nM with MB453 cells. Also, on PI3Kalpha, the IC50 worked out at 5 nM.

Consider `Cc1cc(-c2ncnc(C)c2C#Cc2cnc(C)c(NS(C)(=O)=O)c2)ccn1` [Example 38, N-{2-Methyl-5-[4-methyl-6-(2-methyl-pyridin-4-yl)-pyrimidin-5-ylethynyl]-pyridin-3-yl}-methanesulfonamide], for which the EC50 was determined as 186 nM with MCF7 cells; 2600 nM in the experiment with H460 cells; 893 nM in the experiment with U87 cells; 344 nM with BT474 cells; 317 nM with MB453 cells. Besides, at PI3Kalpha, the IC50 came out at 2 nM.

For `Cc1ncc(C#Cc2c(C)ncnc2-c2cccc(C#N)c2)cc1NS(C)(=O)=O` [Example 39, N-{5-[4-(3-Cyano-phenyl)-6-methyl-pyrimidin-5-ylethynyl]-2-methyl-pyridin-3-yl}-methanesulfonamide], the 50% effective concentration (EC50) with MCF7 cells stood at 213 nM; with H460 cells, 1550 nM; in the experiment with U87 cells, 955 nM; in the experiment with BT474 cells it was 837 nM; with MB453 cells, 524 nM. Besides, the concentration for half-maximal inhibition (IC50) on PI3Kalpha was found to be 4 nM.

Take `Cc1ccc(-c2ncnc(C)c2C#Cc2cnc(C)c(NS(C)(=O)=O)c2)cn1` [Example 40, N-{2-Methyl-5-[4-methyl-6-(6-methyl-pyridin-3-yl)-pyrimidin-5-ylethynyl]-pyridin-3-yl}-methanesulfonamide]: the EC50 in the experiment on MCF7 cells was found to be 188 nM; in the experiment on H460 cells, 1960 nM; with U87 cells, 1170 nM; with BT474 cells it was 597 nM; in the experiment on MB453 cells, 411 nM. For the same molecule, the IC50 at PI3Kalpha was 3 nM.
